{"source": "patent US20230330093A1", "about": "“APPLICATION OF NITROGEN-CONTAINING SATURATED HETEROCYCLIC COMPOUND” (SHANGHAI PHARMACEUTICALS HOLDING CO., LTD., priority 2020, published 2023)", "key": {"[1]": {"tested_on": "cynomolgus monkeys", "assay": "4-week safety study: urinalysis", "assay_type": "in vivo", "conditions": "male and female monkeys", "method": "For the monkey study, at quarantine period (twice, d01 and d02), day 14, day 28 and day 56, the following parameters were measured as shown in Table 20. (1) Hematological and coagulation index examination were performed using a Bayer ADVIA2120 (Germany) and a Sysmex CA-1500 (Japan). (2) The serum biochemical examination was assessed using a HITACHI 7080 automated analyzer (Japan) and an Easylyte PLUS electrolyte analyzer (MEDICA, America). (3) The 24-h pooled urine of each animal was collected by a tray under each cage. Urinalysis was carried out using Uritest-300 (China). (4) The 24-h pooled faeces of each monkey were collected by a tray under each cage. Fecal occult blood was detected. (5) ACCESS 2 Chemiluminescence immunoassay was used for myocardial troponin (TropI, non-GLP) test."}, "[2]": {"tested_on": "cynomolgus monkeys", "assay": "4-week safety study: routine ECG analysis", "assay_type": "in vivo", "method": "Routine ECG analysis was performed at each scheduled time (day 1 after administration, d01 and d02 after administration, 1 and 24 h after administration on day 1, before administration, and 1 and 24 h after administration on day 26 and day 56). P-wave, R-wave, T-wave, P-R intervals, Q-T intervals, QRS duration and heart rate were recorded by an ECG system using derivation DII (ECG-6951E, Shanghai, China)."}}}
{"compound": "COC(=O)NCCCn1nc([C@@H](C)N(C(=O)[C@H]2CNCCO2)C2CC2)c2ccc(C)nc21", "note": "[compound of Formula I]", "values": [{"measurement": "urinalysis parameters", "setting": "[1]", "result": "No significant changes"}, {"measurement": "HR", "setting": "[2]; Female, 20 mg/kg, 1 h (d 1)", "result": "230.1 ± 20.5", "unit": "bmp"}, {"measurement": "QRS", "setting": "[2]; Female, 20 mg/kg, 1 h (d 1)", "result": "38.0 ± 4.5", "unit": "ms"}, {"measurement": "QT", "setting": "[2]; Female, 20 mg/kg, 1 h (d 1)", "result": "160.0 ± 7.1", "unit": "ms"}, {"measurement": "QTc", "setting": "[2]; Female, 20 mg/kg, 1 h (d 1)", "result": "250.2 ± 10.4", "unit": "ms"}, {"measurement": "HR", "setting": "[2]; Female, 20 mg/kg, 1 h (d 26)", "result": "262.8 ± 13.5", "unit": "bmp"}, {"measurement": "QRS", "setting": "[2]; Female, 20 mg/kg, 1 h (d 26)", "result": "36.0 ± 5.5", "unit": "ms"}, {"measurement": "QT", "setting": "[2]; Female, 20 mg/kg, 1 h (d 26)", "result": "140.0 ± 7.1", "unit": "ms"}, {"measurement": "QTc", "setting": "[2]; Female, 20 mg/kg, 1 h (d 26)", "result": "228.9 ± 8.0", "unit": "ms"}, {"measurement": "HR", "setting": "[2]; Female, 20 mg/kg, 24 h (d 1)", "result": "209.8 ± 9.3", "unit": "bmp"}, {"measurement": "QRS", "setting": "[2]; Female, 20 mg/kg, 24 h (d 1)", "result": "34.0 ± 8.9", "unit": "ms"}, {"measurement": "QT", "setting": "[2]; Female, 20 mg/kg, 24 h (d 1)", "result": "158.0 ± 4.5", "unit": "ms"}, {"measurement": "QTc", "setting": "[2]; Female, 20 mg/kg, 24 h (d 1)", "result": "239.7 ± 5.4", "unit": "ms"}, {"measurement": "HR", "setting": "[2]; Female, 20 mg/kg, 24 h (d 26)", "result": "245.4 ± 43.9", "unit": "bmp"}, {"measurement": "QRS", "setting": "[2]; Female, 20 mg/kg, 24 h (d 26)", "result": "36.0 ± 5.5", "unit": "ms"}, {"measurement": "QT", "setting": "[2]; Female, 20 mg/kg, 24 h (d 26)", "result": "150.0 ± 10.0", "unit": "ms"}, {"measurement": "QTc", "setting": "[2]; Female, 20 mg/kg, 24 h (d 26)", "result": "238.6 ± 14.1", "unit": "ms"}, {"measurement": "HR", "setting": "[2]; Female, 20 mg/kg, d0", "result": "185.7 ± 48.0", "unit": "bmp"}, {"measurement": "QRS", "setting": "[2]; Female, 20 mg/kg, d0", "result": "34.0 ± 5.5", "unit": "ms"}, {"measurement": "QT", "setting": "[2]; Female, 20 mg/kg, d0", "result": "170.0 ± 20.0", "unit": "ms"}, {"measurement": "QTc", "setting": "[2]; Female, 20 mg/kg, d0", "result": "244.6 ± 14.3", "unit": "ms"}, {"measurement": "HR", "setting": "[2]; Female, 20 mg/kg, d 56", "result": "238.0 ± 29.2", "unit": "bmp"}, {"measurement": "QRS", "setting": "[2]; Female, 20 mg/kg, d 56", "result": "40.0 ± 0.0", "unit": "ms"}, {"measurement": "QT", "setting": "[2]; Female, 20 mg/kg, d 56", "result": "160.0 ± 0.0", "unit": "ms"}, {"measurement": "QTc", "setting": "[2]; Female, 20 mg/kg, d 56", "result": "253.1 ± 10.4", "unit": "ms"}, {"measurement": "HR", "setting": "[2]; Female, 100 mg/kg, 1 h (d 1)", "result": "228.5 ± 12.8", "unit": "bmp"}, {"measurement": "QRS", "setting": "[2]; Female, 100 mg/kg, 1 h (d 1)", "result": "36.0 ± 5.5", "unit": "ms"}, {"measurement": "QT", "setting": "[2]; Female, 100 mg/kg, 1 h (d 1)", "result": "160.0 ± 7.1", "unit": "ms"}, {"measurement": "QTc", "setting": "[2]; Female, 100 mg/kg, 1 h (d 1)", "result": "249.6 ± 6.7", "unit": "ms"}, {"measurement": "HR", "setting": "[2]; Female, 100 mg/kg, 1 h (d 26)", "result": "246.4 ± 40.7", "unit": "bmp"}, {"measurement": "QRS", "setting": "[2]; Female, 100 mg/kg, 1 h (d 26)", "result": "38.0 ± 4.5", "unit": "ms"}, {"measurement": "QT", "setting": "[2]; Female, 100 mg/kg, 1 h (d 26)", "result": "170.0 ± 10.0", "unit": "ms"}, {"measurement": "QTc", "setting": "[2]; Female, 100 mg/kg, 1 h (d 26)", "result": "271.1 ± 17.2", "unit": "ms"}, {"measurement": "HR", "setting": "[2]; Female, 100 mg/kg, 24 h (d 1)", "result": "217.6 ± 22.7", "unit": "bmp"}, {"measurement": "QRS", "setting": "[2]; Female, 100 mg/kg, 24 h (d 1)", "result": "34.0 ± 5.5", "unit": "ms"}, {"measurement": "QT", "setting": "[2]; Female, 100 mg/kg, 24 h (d 1)", "result": "162.0 ± 11.0", "unit": "ms"}, {"measurement": "QTc", "setting": "[2]; Female, 100 mg/kg, 24 h (d 1)", "result": "248.2 ± 7.7", "unit": "ms"}, {"measurement": "HR", "setting": "[2]; Female, 100 mg/kg, 24 h (d 26)", "result": "256.1 ± 17.1", "unit": "bmp"}, {"measurement": "QRS", "setting": "[2]; Female, 100 mg/kg, 24 h (d 26)", "result": "38.0 ± 4.5", "unit": "ms"}, {"measurement": "QT", "setting": "[2]; Female, 100 mg/kg, 24 h (d 26)", "result": "148.0 ± 8.4", "unit": "ms"}, {"measurement": "QTc", "setting": "[2]; Female, 100 mg/kg, 24 h (d 26)", "result": "239.8 ± 10.5", "unit": "ms"}, {"measurement": "HR", "setting": "[2]; Female, 100 mg/kg, d0", "result": "182.3 ± 28.9", "unit": "bmp"}, {"measurement": "QRS", "setting": "[2]; Female, 100 mg/kg, d0", "result": "32.0 ± 4.5", "unit": "ms"}, {"measurement": "QT", "setting": "[2]; Female, 100 mg/kg, d0", "result": "170.0 ± 12.2", "unit": "ms"}, {"measurement": "QTc", "setting": "[2]; Female, 100 mg/kg, d0", "result": "245.0 ± 9.2", "unit": "ms"}, {"measurement": "HR", "setting": "[2]; Female, 100 mg/kg, d 56", "result": "230.8 ± 5.0", "unit": "bmp"}, {"measurement": "QRS", "setting": "[2]; Female, 100 mg/kg, d 56", "result": "30.0 ± 0.0", "unit": "ms"}, {"measurement": "QT", "setting": "[2]; Female, 100 mg/kg, d 56", "result": "160.0 ± 0.0", "unit": "ms"}, {"measurement": "QTc", "setting": "[2]; Female, 100 mg/kg, d 56", "result": "250.7 ± 1.8", "unit": "ms"}, {"measurement": "HR", "setting": "[2]; Female, 450 mg/kg, 1 h (d 1)", "result": "211.3 ± 20.5", "unit": "bmp"}, {"measurement": "QRS", "setting": "[2]; Female, 450 mg/kg, 1 h (d 1)", "result": "50.0 ± 14.1", "unit": "ms"}, {"measurement": "QT", "setting": "[2]; Female, 450 mg/kg, 1 h (d 1)", "result": "175.0 ± 17.3", "unit": "ms"}, {"measurement": "QTc", "setting": "[2]; Female, 450 mg/kg, 1 h (d 1)", "result": "265.5 ± 19.9", "unit": "ms"}, {"measurement": "HR", "setting": "[2]; Female, 450 mg/kg, 1 h (d 26)", "result": "262.7 ± 15.4", "unit": "bmp"}, {"measurement": "QRS", "setting": "[2]; Female, 450 mg/kg, 1 h (d 26)", "result": "40.0 ± 0.2", "unit": "ms"}, {"measurement": "QT", "setting": "[2]; Female, 450 mg/kg, 1 h (d 26)", "result": "140.0 ± 8.2", "unit": "ms"}, {"measurement": "QTc", "setting": "[2]; Female, 450 mg/kg, 1 h (d 26)", "result": "229.0 ± 14.6", "unit": "ms"}, {"measurement": "HR", "setting": "[2]; Female, 450 mg/kg, 24 h (d 1)", "result": "211.3 ± 2.4", "unit": "bmp"}, {"measurement": "QRS", "setting": "[2]; Female, 450 mg/kg, 24 h (d 1)", "result": "35.0 ± 5.8", "unit": "ms"}, {"measurement": "QT", "setting": "[2]; Female, 450 mg/kg, 24 h (d 1)", "result": "162.5 ± 9.6", "unit": "ms"}, {"measurement": "QTc", "setting": "[2]; Female, 450 mg/kg, 24 h (d 1)", "result": "247.2 ± 13.8", "unit": "ms"}, {"measurement": "HR", "setting": "[2]; Female, 450 mg/kg, 24 h (d 26)", "result": "257.8 ± 9.0", "unit": "bmp"}, {"measurement": "QRS", "setting": "[2]; Female, 450 mg/kg, 24 h (d 26)", "result": "32.5 ± 5.0", "unit": "ms"}, {"measurement": "QT", "setting": "[2]; Female, 450 mg/kg, 24 h (d 26)", "result": "152.5 ± 9.6", "unit": "ms"}, {"measurement": "QTc", "setting": "[2]; Female, 450 mg/kg, 24 h (d 26)", "result": "247.8 ± 14.4", "unit": "ms"}, {"measurement": "HR", "setting": "[2]; Female, 450 mg/kg, d0", "result": "174.1 ± 28.8", "unit": "bmp"}, {"measurement": "QRS", "setting": "[2]; Female, 450 mg/kg, d0", "result": "32.0 ± 4.5", "unit": "ms"}, {"measurement": "QT", "setting": "[2]; Female, 450 mg/kg, d0", "result": "168.0 ± 16.4", "unit": "ms"}, {"measurement": "QTc", "setting": "[2]; Female, 450 mg/kg, d0", "result": "238.1 ± 12.7", "unit": "ms"}, {"measurement": "HR", "setting": "[2]; Female, 450 mg/kg, d 56", "result": "207.4 ± 28.1", "unit": "bmp"}, {"measurement": "QRS", "setting": "[2]; Female, 450 mg/kg, d 56", "result": "25.0 ± 7.1", "unit": "ms"}, {"measurement": "QT", "setting": "[2]; Female, 450 mg/kg, d 56", "result": "170.0 ± 14.1", "unit": "ms"}, {"measurement": "QTc", "setting": "[2]; Female, 450 mg/kg, d 56", "result": "256.3 ± 9.7", "unit": "ms"}, {"measurement": "HR", "setting": "[2]; Male, 20 mg/kg, 1 h (d 1)", "result": "216.0 ± 27.0", "unit": "bmp"}]}
